Among the data in US7514443B2, “Substituted pyrazolo[1,5-a]pyrimidines as inhibitors of metabotropic glutamate receptors” (Hoffmann-La Roche Inc., priority 2003, dated 2009) are melting point values, retold here.

As for `N#Cc1cnn2c(C(F)(F)F)cc(-c3cccnc3)nc12` [Example 1.21, 5-Pyridin-3-yl-7-trifluoromethyl-pyrazolo[1,5-a]pyrimidine-3-carbonitrile], the melting point – broadly, the temperature, or range, at which the solid turns liquid – turned out to be 193 °C. As for `N#Cc1ncn2c(C(F)(F)F)cc(-c3ccncc3)nc12` [Example 5.27, 2-Pyridin-4-yl-4-trifluoromethyl-imidazo[1,5-a]pyrimidine-8-carbonitrile], the figure is 254 °C. Take `Cc1cc(-c2cc(C(F)(F)F)n3cnc(-c4ccncc4)c3n2)ccc1Cl` [Example 8.10, 2-(4-Chloro-3-methyl-phenyl)-8-pyridin-4-yl-4-trifluoromethyl-imidazo[1,5-a]pyrimidine]: the melting point was determined as 254 °C. Compound `Fc1cc(-c2cc(C(F)(F)F)n3cnc(-c4ccncc4)c3n2)ccc1C(F)(F)F` [Example 8.15, 2-(3-Fluoro-4-trifluoromethyl-phenyl)-8-pyridin-4-yl-4-trifluoromethyl-imidazo[1,5-a]pyrimidine] displayed a melting point of 267 °C.

For `Fc1ccc(-c2cc(C(F)(F)F)n3cnc(-c4cccnc4)c3n2)cc1Cl` [Example 8.3, 2-(3-Chloro-4-fluoro-phenyl)-8-pyridin-3-yl-4-trifluoromethyl-imidazo[1,5-a]pyrimidine], the melting point worked out at 188 °C. `Cc1cc(-c2cc(C(F)F)n3ncc(-c4ccncc4)c3n2)ccc1C(F)(F)F` [Example 9.3, 7-Difluoromethyl-5-(3-methyl-4-trifluoromethyl-phenyl)-3-pyridin-4-yl-pyrazolo[1,5-a]pyrimidine] yielded a melting point of 236 °C.

In the case of `FC(F)(F)c1cccc(-c2cc(C(F)(F)F)n3ncc(-c4cccnc4)c3n2)c1` [Example 4.13, 5-(3-Trifluoromethyl-phenyl)-3-pyridin-3-yl-7-trifluoromethyl-pyrazolo[1,5-a]pyrimidine], the melting point stood at 171 °C. Take `CCOc1cc(-c2cc(C(F)(F)F)n3cnc(-c4ccncc4)c3n2)ccc1C(F)(F)F` [Example 8.30, 2-(3-Ethoxy-4-trifluoromethyl-phenyl)-8-pyridin-4-yl-4-trifluoromethyl-imidazo[1,5-a]pyrimidine]: the melting point was determined as 212 °C. Compound `N#Cc1ncn2c(C(F)(F)F)cc(-c3cccc(C(F)(F)F)c3)nc12` [Example 5.11, 2-(3-Trifluoromethyl-phenyl)-4-trifluoromethyl-imidazo[1,5-a]pyrimidine-8-carbonitrile] gave a melting point of 202 °C. With `Cc1cc(-c2cnn3c(C(F)(F)F)cc(-c4ccc(Cl)c(C)c4)nc23)cc(C)n1` [Example 4.20, 5-(4-Chloro-3-methyl-phenyl)-3-(2,6-dimethyl-pyridin-4-yl)-7-trifluoromethyl-pyrazolo[1,5-a]pyrimidine], the melting point was 254 °C.

The compound `FC(F)(F)c1cc(-c2ccc(Cl)cc2)nc2c(-c3cccnc3)cnn12` [Example 4.1, 5-(4-Chloro-phenyl)-3-pyridin-3-yl-7-trifluoromethyl-pyrazolo[1,5-a]pyrimidine] gave a melting point of 188 °C. With `Cc1cc(-c2cnn3c(C(F)(F)F)cc(-c4cccc(C(F)(F)F)c4)nc23)ccn1` [Example 4.34, 5-(3-Trifluoromethyl-phenyl)-3-(2-methyl-pyridin-4-yl)-7-trifluoromethyl-pyrazolo[1,5-a]pyrimidine], the melting point stood at 232 °C.

Take `Cc1cc(-c2ncn3c(C(F)(F)F)cc(-c4ccc(C(F)(F)F)c(C(F)(F)F)c4)nc23)ccn1` [Example 8.35, 2-(3,4-Bis-trifluoromethyl-phenyl)-8-(2-methyl-pyridin-4-yl)-4-trifluoromethyl-imidazo[1,5-a]pyrimidine]: the melting point is 218 °C. As for `Cc1ccc(-c2cc(C(F)(F)F)n3ncc(C#N)c3n2)cc1` [Example 1.2, 5-(4-Methyl-phenyl)-7-trifluoromethyl-pyrazolo[1,5-a]pyrimidine-3-carbonitrile], the figure is 121 °C. In turn, `FC(F)(F)COc1ccc(-c2cc(C(F)(F)F)n3cnc(-c4ccncc4)c3n2)cc1C(F)(F)F` [Example 8.18, 8-Pyridin-4-yl-2-[4-(2,2,2-trifluoro-ethoxy)-3-trifluoromethyl-phenyl]-4-trifluoromethyl-imidazo[1,5-a]pyrimidine] returned a melting point of 269 °C. `Cc1nn2c(C(F)(F)F)cc(-c3ccc(Cl)cc3)nc2c1C#N` [Example 2.3, 5-(4-Chloro-phenyl)-2-methyl-7-trifluoromethyl-pyrazolo[1,5-a]pyrimidine-3-carbonitrile] returned a melting point of 238 °C.

The compound `Cc1cc(-c2cnn3c(C(F)(F)F)cc(-c4ccc(C(F)(F)F)c(C)c4)nc23)ccn1` [Example 4.39, 5-(3-Methyl-4-trifluoromethyl-phenyl)-3-(2-methyl-pyridin-4-yl)-7-trifluoromethyl-pyrazolo[1,5-a]pyrimidine] gave a melting point of 237 °C. `N#Cc1cnn2c(C(F)(F)F)cc(-c3ccccc3Cl)nc12` [Example 1.3, 5-(2-Chloro-phenyl)-7-trifluoromethyl-pyrazolo[1,5-a]pyrimidine-3-carbonitrile] had a melting point of 169 °C. On to `Cc1cc(-c2cnn3c(C(F)(F)F)cc(-c4ccc(F)c(Cl)c4)nc23)ccn1` [Example 4.31, 5-(3-Chloro-4-fluoro-phenyl)-3-(2-methyl-pyridin-4-yl)-7-trifluoromethyl-pyrazolo[1,5-a]pyrimidine], for which the melting point stood at 292 °C. Compound `N#Cc1cnn2c(C(F)(F)F)cc(-c3ccccn3)nc12` [Example 1.20, 5-Pyridin-2-yl-7-trifluoromethyl-pyrazolo[1,5-a]pyrimidine-3-carbonitrile] gave a melting point of 208 °C. The same measure for `Cc1cc(-c2cnn3c(C(F)F)cc(-c4ccc(C(F)(F)F)c(C)c4)nc23)ccn1` [Example 9.4, 7-Difluoromethyl-3-(2-methyl-pyridin-4-yl)-5-(3-methyl-4-trifluoromethyl-phenyl)-pyrazolo[1,5-a]pyrimidine]: 221 °C. `Cc1cc(-c2cnn3c(C(F)(F)F)cc(-c4ccc(Cl)cc4)nc23)ccn1` [Example 4.29, 5-(4-Chloro-phenyl)-3-(2-methyl-pyridin-4-yl)-7-trifluoromethyl-pyrazolo[1,5-a]pyrimidine] displayed a melting point of 220 °C.

Regarding `N#Cc1ncn2c(C(F)(F)F)cc(-c3ccc(OCC(F)(F)F)c(C(F)(F)F)c3)nc12` [Example 5.24, 2-(4-Trifluoroethoxy-3-trifluoromethyl-phenyl)-4-trifluoromethyl-imidazo[1,5-a]pyrimidine-8-carbonitrile], the melting point came out at 189 °C. `Cc1cc(-c2cnn3c(C(F)(F)F)cc(-c4ccc(C(F)(F)F)cc4)nc23)ccn1` [Example 4.33, 5-(4-Trifluoromethyl-phenyl)-3-(2-methyl-pyridin-4-yl)-7-trifluoromethyl-pyrazolo[1,5-a]pyrimidine] yielded a melting point of 243 °C. The compound `Fc1ccc(-c2cc(C(F)(F)F)n3cnc(-c4ccncc4)c3n2)cc1Cl` [Example 8.11, 2-(3-Chloro-4-fluoro-phenyl)-8-pyridin-4-yl-4-trifluoromethyl-imidazo[1,5-a]pyrimidine] yielded a melting point of 266 °C. The same measure for `Cc1ccc(-c2cc(C(F)(F)F)n3cnc(C#N)c3n2)cc1C(F)(F)F` [Example 5.22, 2-(4-Methyl-3-trifluoromethyl-phenyl)-4-trifluoromethyl-imidazo[1,5-a]pyrimidine-8-carbonitrile]: 220 °C. `FC(F)(F)c1cc(-c2ccc(Cl)c(Cl)c2)nc2c(-c3ccccn3)cnn12` [Example 4.11, 5-(3,4-Dichloro-phenyl)-3-pyridin-2-yl-7-trifluoromethyl-pyrazolo[1,5-a]pyrimidine] showed a melting point of 188 °C.

`Cc1cc(-c2ncn3c(C(F)(F)F)cc(-c4ccc(C(F)(F)F)c(OCC(F)(F)F)c4)nc23)ccn1` [Example 8.33, 8-(2-Methyl-pyridin-4-yl)-2-[3-(2,2,2-trifluoro-ethoxy)-4-trifluoromethyl-phenyl]-4-trifluoromethyl-imidazo[1,5-a]pyrimidine] displayed a melting point of 189 °C. `N#Cc1cnn2c(C(F)(F)F)cc(-c3ccc(C(F)(F)F)c(F)c3)nc12` [Example 1.17, 5-(3-Fluoro-4-trifluoromethyl-phenyl)-7-trifluoromethyl-pyrazolo[1,5-a]pyrimidine-3-carbonitrile] displayed a melting point of 184 °C. As for `Cc1cc(-c2cc(C(F)(F)F)n3ncc(-c4ccncc4)c3n2)ccc1C(F)(F)F` [Example 4.37, 5-(3-Methyl-4-trifluoromethyl-phenyl)-3-pyridin-4-yl-7-trifluoromethyl-pyrazolo[1,5-a]pyrimidine], the figure is 227 °C; as for `N#Cc1cnn2c(C(F)(F)F)cc(-c3ccc(C(F)(F)F)cc3)nc12` [Example 1.7, 5-(4-Trifluoromethyl-phenyl)-7-trifluoromethyl-pyrazolo[1,5-a]pyrimidine-3-carbonitrile], 176 °C; as for `Fc1ccc(-c2cc(C(F)(F)F)n3ncc(-c4ccccn4)c3n2)cc1Cl` [Example 4.8, 5-(3-Chloro-4-fluoro-phenyl)-3-pyridin-2-yl-7-trifluoromethyl-pyrazolo[1,5-a]pyrimidine], 197 °C. Turning to `N#Cc1cnn2c(C(F)(F)F)cc(-c3ccc(F)c(Cl)c3)nc12` [Example 1.14, 5-(3-Chloro-4-fluoro-phenyl)-7-trifluoromethyl-pyrazolo[1,5-a]pyrimidine-3-carbonitrile], the melting point is 190 °C. The same measure for `FC(F)(F)c1ccc(-c2cc(C(F)(F)F)n3cnc(-c4ccncc4)c3n2)cc1C(F)(F)F` [Example 8.34, 2-(3,4-Bis-trifluoromethyl-phenyl)-8-pyridin-4-yl-4-trifluoromethyl-imidazo[1,5-a]pyrimidine]: 211 °C; for `Cc1cc(-c2ncn3c(C(F)(F)F)cc(-c4ccc(Cl)c(C)c4)nc23)ccn1` [Example 8.21, 2-(4-Chloro-3-methyl-phenyl)-8-(2-methyl-pyridin-4-yl)-4-trifluoromethyl-imidazo[1,5-a]pyrimidine]: 246 °C; for `FC(F)(F)c1cc(-c2ccc(Cl)cc2)nc2c(-c3ccncc3)ncn12` [Example 8.9, 2-(4-Chloro-phenyl)-8-pyridin-4-yl-4-trifluoromethyl-imidazo[1,5-a]pyrimidine]: 290 °C.
